Assay results taken from US9487516B2, “Antibacterial oxadiazolone derivatives” (priority 2013, dated 2016).
≈ marks a conversion by molar mass, not a printed value.

Key:
Test in all cases: Bacterial growth minimal inhibitory concentration (microdilution, cation-adjusted Mueller-Hinton Broth)
Assay type in all cases: cell-based
[1] = test system: Moraxella catarrhalis A894; settings: quinolone-sensitive strain
Experimental: (§1) Minimal Inhibitory Concentrations (MICs; mg/L) were determined in cation-adjusted MuellerHinton Broth by a microdilution method following the description given in “Methods for Dilution Antimicrobial Susceptibility Tests for Bacteria that Grow Aerobically”, Approved standard, 7th ed., Clinical and Laboratory Standards Institute (CLSI) Document M7-A7, Wayne, Pa., USA, 2006.
(§2) All Example compounds were tested against several Gram positive and Gram negative bacteria. […] Staphylococcus aureus A798, Enterococcus faecium A949 and Acinetobacter baumanii T6474 are multiply-resistant strains (in particular quinolone-resistant), while Moraxella catarrhalis A894 is a quinolone-sensitive strain and Staphylococcus aureus ATCC29213 is a methicillin-sensitive and quinolone-sensitive strain.

[2] = test system: Enterococcus faecium A949; settings: multiply-resistant strain (in particular quinolone-resistant), read-out: MIC for E. faecium A949
Experimental: as §1, §2

[3] = test system: Staphylococcus aureus ATCC29213; settings: methicillin-sensitive and quinolone-sensitive strain, read-out: MIC for S. aureus ATCC29213
Experimental: as §1, §2

[4] = test system: Acinetobacter baumanii T6474; settings: Acinetobacter baumannii, multiply-resistant strain (in particular quinolone-resistant)
Experimental: as §1, §2

[5] = test system: Staphylococcus aureus A798; settings: multiply-resistant strain (in particular quinolone-resistant), read-out: MIC for S. aureus A798
Experimental: as §1, §2

| MIC [1] | MIC [2] | MIC [3] | MIC [4] | MIC [5] | SMILES |
| --- | --- | --- | --- | --- | --- |
| 0.063 µg/mL (≈ 0.127 µM) | 0.25 µg/mL (≈ 0.505 µM) | 0.063 µg/mL (≈ 0.127 µM) | 0.25 µg/mL (≈ 0.505 µM) | 0.063 µg/mL (≈ 0.127 µM) | O=C1CSc2ccc(-n3nc(CCCN[C@H]4Cn5c(=O)cnc6ccc(F)c4c65)oc3=O)nc2N1 [Example 16, (R)-7-fluoro-6-{3-[5-oxo-4-(3-oxo-3,4-dihydro-2H-pyrido[3,2-b][1,4]-thiazin-6-yl)-4,5-dihydro-[1,3,4]oxadiazol-2-yl]-propylamino}-5,6-dihydro-pyrrolo[1,2,3-de]quinoxalin-3-one] |
| 4 µg/mL (≈ 8.59 µM) | > 8 µg/mL | 2 µg/mL (≈ 4.3 µM) | 4 µg/mL (≈ 8.59 µM) | 8 µg/mL (≈ 17.2 µM) | O=c1oc(CCCN[C@@H]2Cn3c(=O)cnc4ccc(F)c2c43)nn1-c1ccc2c(c1)OCCO2 [Example 24, (S)-6-{3-[4-(2,3-dihydro-benzo[1,4]dioxin-6-yl)-5-oxo-4,5-dihydro-[1,3,4]oxadiazol-2-yl]-propylamino}-7-fluoro-5,6-dihydro-pyrrolo[1,2,3-de]quinoxalin-3-one] |
| 0.125 µg/mL (≈ 0.261 µM) | 0.5 µg/mL (≈ 1.05 µM) | 0.125 µg/mL (≈ 0.261 µM) | 0.5 µg/mL (≈ 1.05 µM) | 0.25 µg/mL (≈ 0.523 µM) | O=C1COc2ccc(-n3nc(CCCN[C@@H]4Cn5c(=O)ccc6ccc(F)c4c65)oc3=O)nc2N1 [Example 8, (S)-9-fluoro-1-{3-[5-oxo-4-(3-oxo-3,4-dihydro-2H-pyrido[3,2-b][1,4]oxazin-6-yl)-4,5-dihydro-[1,3,4]oxadiazol-2-yl]-propylamino}-1,2-dihydro-pyrrolo[3,2,1-ij]quinolin-4-one] |
